We go through 9 compounds from patent publication US12662479B2 (Foghorn Therapeutics Inc., priority 2020, dated 2026).

Some results are limits rather than exact numbers.

The target of test [1] is T1, HiBit-BRG1 fusion protein (Homo sapiens, UniProt P51532).
T1 construct: expressed in transfected cells
The test can be described thus: HiBiT-BRG1 cell-based degradation assay (Nano-Glo HiBiT Lytic Detection, 24 h). The settings on record: HeLa cells expressing HiBit-BRG1 and LgBit; for DC50: read-out: BRG1 HiBit Degradation IC50; for Dmax: HeLa, top dose 30 μM, read-out: BRG1 HiBit Degradation Maximum measured. In a few lines:
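Stable HeLa line expressing HiBiT-BRG1 and LgBiT, seeded at 5000 cells/well; luminescence read after lytic Nano-Glo HiBiT reagent and 10 min shaking at RT. % degradation normalised between DMSO (high control) and 2 μM reference BRM/BRG1 degrader (low control).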

Test [2] addresses T2, HiBit-BRM fusion protein (Homo sapiens, UniProt P51531).
T2 construct: expressed in transfected cells
The experiment in a line: HiBiT-BRM cell-based degradation assay (Nano-Glo HiBiT Lytic Detection, 24 h). The settings on record: HeLa cells expressing HiBiT-BRM; for DC50: read-out: BRM HiBit Degradation IC50; for BRM HiBit Degradation Maximum measured: top dose 30 μM. In a few lines:
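HeLa cells stably expressing HiBiT-BRM were dosed with compounds (10-point 3-fold dilutions, 30 μM final top dose, duplicate) for 24 h. HiBiT signal was read by lytic LgBiT complementation luminescence. Percent degradation was normalised to DMSO (high control) and 2 μM of a reference BRM/BRG1 degrader (low control).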
For orientation: HiBiT is a short tag that completes a luciferase, so light tracks the accessible tagged protein.

T1 sequence (P51532 whole entry, the tested form may be a part): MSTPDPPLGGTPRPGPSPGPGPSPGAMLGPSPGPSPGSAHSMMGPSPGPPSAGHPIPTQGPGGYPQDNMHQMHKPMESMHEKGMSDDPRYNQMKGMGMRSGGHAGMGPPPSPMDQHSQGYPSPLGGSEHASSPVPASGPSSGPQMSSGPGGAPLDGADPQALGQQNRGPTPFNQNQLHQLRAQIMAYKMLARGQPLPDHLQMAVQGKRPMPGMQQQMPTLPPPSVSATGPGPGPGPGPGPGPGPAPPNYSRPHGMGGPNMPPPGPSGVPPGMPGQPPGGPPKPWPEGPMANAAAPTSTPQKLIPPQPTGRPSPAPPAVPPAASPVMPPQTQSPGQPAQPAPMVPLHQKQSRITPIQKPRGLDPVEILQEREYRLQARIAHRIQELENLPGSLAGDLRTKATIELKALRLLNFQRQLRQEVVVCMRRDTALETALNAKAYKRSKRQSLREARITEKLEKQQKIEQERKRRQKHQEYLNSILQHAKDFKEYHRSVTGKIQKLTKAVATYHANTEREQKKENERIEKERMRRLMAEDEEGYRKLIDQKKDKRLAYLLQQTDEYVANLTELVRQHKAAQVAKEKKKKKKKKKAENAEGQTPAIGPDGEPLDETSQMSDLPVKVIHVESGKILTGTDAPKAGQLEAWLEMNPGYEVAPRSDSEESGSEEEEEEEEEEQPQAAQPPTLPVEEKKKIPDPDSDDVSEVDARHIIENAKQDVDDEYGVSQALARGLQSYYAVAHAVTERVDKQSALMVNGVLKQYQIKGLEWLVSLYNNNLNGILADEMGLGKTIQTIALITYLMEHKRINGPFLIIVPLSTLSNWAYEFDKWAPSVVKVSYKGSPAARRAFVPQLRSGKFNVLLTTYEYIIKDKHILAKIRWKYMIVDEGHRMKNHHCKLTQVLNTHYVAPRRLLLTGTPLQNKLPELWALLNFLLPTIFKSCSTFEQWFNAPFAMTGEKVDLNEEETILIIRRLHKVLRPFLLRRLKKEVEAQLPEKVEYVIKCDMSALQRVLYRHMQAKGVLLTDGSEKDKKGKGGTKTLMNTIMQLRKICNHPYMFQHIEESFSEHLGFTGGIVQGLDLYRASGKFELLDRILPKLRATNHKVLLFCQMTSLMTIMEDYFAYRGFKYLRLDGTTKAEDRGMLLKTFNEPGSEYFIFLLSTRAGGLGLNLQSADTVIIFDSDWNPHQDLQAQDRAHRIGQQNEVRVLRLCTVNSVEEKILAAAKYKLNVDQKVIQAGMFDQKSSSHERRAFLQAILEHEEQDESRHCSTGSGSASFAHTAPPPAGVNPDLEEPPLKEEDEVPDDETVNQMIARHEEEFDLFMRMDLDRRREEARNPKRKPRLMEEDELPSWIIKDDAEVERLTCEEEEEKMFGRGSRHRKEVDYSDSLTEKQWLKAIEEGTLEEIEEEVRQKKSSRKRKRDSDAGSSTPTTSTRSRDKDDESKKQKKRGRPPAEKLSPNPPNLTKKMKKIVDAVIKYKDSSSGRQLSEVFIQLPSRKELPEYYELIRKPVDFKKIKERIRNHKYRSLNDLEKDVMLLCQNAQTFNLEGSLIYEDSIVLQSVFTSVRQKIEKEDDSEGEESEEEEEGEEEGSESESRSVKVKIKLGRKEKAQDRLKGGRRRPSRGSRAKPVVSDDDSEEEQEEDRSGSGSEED
T2 sequence (P51531 whole entry, the tested form may be a part): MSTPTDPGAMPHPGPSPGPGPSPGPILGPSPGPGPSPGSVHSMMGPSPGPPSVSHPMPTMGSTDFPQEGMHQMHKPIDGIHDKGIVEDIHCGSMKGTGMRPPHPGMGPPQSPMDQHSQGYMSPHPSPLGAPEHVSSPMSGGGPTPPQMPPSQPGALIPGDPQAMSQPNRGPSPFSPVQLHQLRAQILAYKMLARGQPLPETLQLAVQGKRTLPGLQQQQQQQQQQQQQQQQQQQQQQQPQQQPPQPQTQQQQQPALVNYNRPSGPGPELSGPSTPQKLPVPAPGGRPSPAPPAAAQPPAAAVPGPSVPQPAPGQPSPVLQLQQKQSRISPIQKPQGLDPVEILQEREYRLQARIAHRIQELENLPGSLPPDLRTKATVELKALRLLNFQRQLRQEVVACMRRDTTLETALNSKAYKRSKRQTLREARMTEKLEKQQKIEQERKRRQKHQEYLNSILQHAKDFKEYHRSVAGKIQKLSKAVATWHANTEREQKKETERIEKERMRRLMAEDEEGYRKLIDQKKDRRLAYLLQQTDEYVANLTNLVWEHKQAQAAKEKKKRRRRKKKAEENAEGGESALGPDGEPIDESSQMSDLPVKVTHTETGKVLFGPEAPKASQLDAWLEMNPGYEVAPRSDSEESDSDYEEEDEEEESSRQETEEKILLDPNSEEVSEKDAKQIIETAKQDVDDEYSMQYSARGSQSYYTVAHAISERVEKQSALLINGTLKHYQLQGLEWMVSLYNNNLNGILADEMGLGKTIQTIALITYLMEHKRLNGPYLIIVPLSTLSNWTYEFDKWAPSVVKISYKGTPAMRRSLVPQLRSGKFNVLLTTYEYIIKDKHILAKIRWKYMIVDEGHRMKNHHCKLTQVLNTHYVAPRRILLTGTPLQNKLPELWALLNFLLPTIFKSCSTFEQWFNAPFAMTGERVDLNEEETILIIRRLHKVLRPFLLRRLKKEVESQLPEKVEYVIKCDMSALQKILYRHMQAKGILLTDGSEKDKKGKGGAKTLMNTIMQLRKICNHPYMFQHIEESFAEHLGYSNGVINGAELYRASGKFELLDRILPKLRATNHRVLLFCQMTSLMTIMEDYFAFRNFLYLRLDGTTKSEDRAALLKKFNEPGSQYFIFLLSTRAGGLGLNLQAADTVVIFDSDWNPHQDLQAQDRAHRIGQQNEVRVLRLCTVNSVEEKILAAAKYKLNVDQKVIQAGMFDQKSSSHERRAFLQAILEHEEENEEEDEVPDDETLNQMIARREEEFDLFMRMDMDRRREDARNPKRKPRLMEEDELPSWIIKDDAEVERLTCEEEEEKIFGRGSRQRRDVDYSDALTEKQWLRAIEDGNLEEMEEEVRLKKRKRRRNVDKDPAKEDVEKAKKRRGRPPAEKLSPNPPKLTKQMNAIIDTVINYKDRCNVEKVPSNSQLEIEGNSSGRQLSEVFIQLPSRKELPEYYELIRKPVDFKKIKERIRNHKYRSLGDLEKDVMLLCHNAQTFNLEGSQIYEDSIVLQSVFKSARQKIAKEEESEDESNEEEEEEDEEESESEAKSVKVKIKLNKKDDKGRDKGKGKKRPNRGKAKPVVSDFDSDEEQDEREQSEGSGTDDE

As for `CS(=O)(=O)n1ccc(C(=O)N[C@@H](COCc2ccc(C(=O)NCCOC3CN(c4ccc5c(c4)C(=O)N(C4CCC(=O)NC4=O)C5=O)C3)cc2)C(=O)Nc2nc(-c3ccccc3)cs2)c1` (stereo partly drawn) [Compound 246, N-[2-([1-[2-(2,6-dioxopiperidin-3-yl)-1,3-dioxoisoindol-5-yl]azetidin-3-yl]oxy)ethyl]-4-[[(2S)-2-[(1-methanesulfonylpyrrol-3-yl)formamido]-2-[(4-phenyl-1,3-thiazol-2-yl)carbamoyl]ethoxy]methyl]benzamide], in test [1], the DC50 fell in the range of 0.1 to 1 µM and the Dmax is over 75%. Moreover, in test [2], the DC50 lay in the range of 0.1 to 1 µM; the “BRM HiBit Degradation Maximum measured” value is “B (‘B’ = Maximum degradation ≥50% and ≤75%)”.

In the case of `CS(=O)(=O)n1ccc(C(=O)N[C@@H](COCc2ccc(C(=O)NC3CCN(CCOc4ccc5c(c4)C(=O)N(C4CCC(=O)NC4=O)C5=O)CC3)cc2)C(=O)Nc2nc(-c3ccccc3)cs2)c1` (stereo partly drawn) [Compound 247, N-[1-(2-[[2-(2,6-dioxopiperidin-3-yl)-1,3-dioxoisoindol-5-yl]oxy]ethyl)piperidin-4-yl]-4-[[(2S)-2-[(1-methanesulfonylpyrrol-3-yl)formamido]-2-[(4-phenyl-1,3-thiazol-2-yl)carbamoyl]ethoxy]methyl]benzamide], in test [1], the DC50 fell in the range of 0.1 to 1 µM and the Dmax is over 75%. In test [2], the DC50 fell in the range of 0.1 to 1 µM and the “BRM HiBit Degradation Maximum measured” value is on record as “A (‘A’ = Maximum degradation >75%)”.

Regarding `CS(=O)(=O)n1ccc(C(=O)N[C@@H](COCc2ccc(C(=O)NCCCCS(=O)(=O)CCCNc3cccc4c3C(=O)N(C3CCC(=O)NC3=O)C4=O)cc2)C(=O)Nc2nc(-c3ccccc3)cs2)c1` (stereo partly drawn) [Compound 248, N-[4-(3-[[2-(2,6-dioxopiperidin-3-yl)-1,3-dioxoisoindol-4-yl]amino]propanesulfonyl)butyl]-4-[[(2S)-2-[(1-methanesulfonylpyrrol-3-yl)formamido]-2-[(4-phenyl-1,3-thiazol-2-yl)carbamoyl]ethoxy]methyl]benzamide], in test [1], the DC50 was 0.1 to 1 µM and the Dmax lay in the range of 50 to 75%. Further, in test [2], the DC50 lay in the range of 1 to 10 µM; the “BRM HiBit Degradation Maximum measured” value was “B (‘B’ = Maximum degradation ≥50% and ≤75%)”.

`Cc1ncsc1-c1ccc(CNC(=O)[C@@H]2C[C@@H](O)CN2C(=O)[C@@H](NC(=O)COCCOCCNC(=O)CCCOCC[C@H](NC(=O)c2ccn(S(C)(=O)=O)c2)C(=O)Nc2nc(-c3ccccc3)cs2)C(C)(C)C)cc1` [Compound 249, (2S,4R)-4-hydroxy-1-[(2S)-2-[2-[2-(2-[4-[(3S)-3-[(1-methanesulfonylpyrrol-3-yl)formamido]-3-[(4-phenyl-1,3-thiazol-2-yl)carbamoyl]propoxy]butanamido]ethoxy)ethoxy]acetamido]-3,3-dimethylbutanoyl]-N-[[4-(4-methyl-1,3-thiazol-5-yl)phenyl]methyl]pyrrolidine-2-carboxamide]: in test [1], the DC50 was over 10 µM and the Dmax is under 50%. Also, in test [2], the DC50 was over 10 µM and the “BRM HiBit Degradation Maximum measured” value is “C (‘C’ = Maximum degradation <50%)”.

Turning to `Cc1ncsc1-c1ccc(CNC(=O)[C@H]2C[C@@H](O)CN2C(=O)[C@@H](NC(=O)COCCOCCOCCNC(=O)CCCOCC[C@H](NC(=O)c2ccn(S(C)(=O)=O)c2)C(=O)Nc2nc(-c3ccccc3)cs2)C(C)(C)C)cc1` [Compound 250, (2R,4R)-4-hydroxy-1-[(2S)-2-(2-[2-[2-(2-[4-[(3S)-3-[(1-methanesulfonylpyrrol-3-yl)formamido]-3-[(4-phenyl-1,3-thiazol-2-yl)carbamoyl]propoxy]butanamido]ethoxy)ethoxy]ethoxy]acetamido)-3,3-dimethylbutanoyl]-N-[[4-(4-methyl-1,3-thiazol-5-yl)phenyl]methyl]pyrrolidine-2-carboxamide], in test [1], the DC50 was over 10 µM and the Dmax is under 50%. In test [2], the DC50 was over 10 µM and the “BRM HiBit Degradation Maximum measured” value is on record as “C (‘C’ = Maximum degradation <50%)”.

`Cc1ncsc1-c1ccc(CNC(=O)[C@@H]2C[C@@H](O)CN2C(=O)[C@@H](NC(=O)CCCCCNC(=O)CCCOCC[C@H](NC(=O)c2ccn(S(C)(=O)=O)c2)C(=O)Nc2nc(-c3ccccc3)cs2)C(C)(C)C)cc1` [Compound 251, (2S,4R)-4-hydroxy-1-[(2S)-2-(6-[4-[(3S)-3-[(1-methanesulfonylpyrrol-3-yl)formamido]-3-[(4-phenyl-1,3-thiazol-2-yl)carbamoyl]propoxy]butanamido]hexanamido)-3,3-dimethylbutanoyl]-N-[[4-(4-methyl-1,3-thiazol-5-yl)phenyl]methyl]pyrrolidine-2-carboxamide]: in test [1], the DC50 is over 10 µM and the Dmax is under 50%. For the same compound, in test [2], the DC50 was over 10 µM and the “BRM HiBit Degradation Maximum measured” value is on record as “C (‘C’ = Maximum degradation <50%)”.

Take `CN(CCNC(=O)CCCOCC[C@H](NC(=O)c1ccn(S(C)(=O)=O)c1)C(=O)Nc1nc(-c2ccccc2)cs1)CCNC(=O)COc1cccc2c1C(=O)N(C1CCC(=O)NC1=O)C2=O.O=CO` (stereo partly drawn) [Compound 252, (2S)-4-[3-[(2-[[2-(2-[[2-(2,6-dioxopiperidin-3-yl)-1,3-dioxoisoindol-4-yl]oxy]acetamido)ethyl](methyl)amino]ethyl)carbamoyl]propoxy]-2-[(1-methanesulfonylpyrrol-3-yl)formamido]-N-(4-phenyl-1,3-thiazol-2-yl)butanamide; formic acid]: in test [1], the DC50 was over 10 µM and the Dmax was under 50%. Further, in test [2], the DC50 was over 10 µM and the “BRM HiBit Degradation Maximum measured” value is given as “C (‘C’ = Maximum degradation <50%)”.

With `CS(=O)(=O)n1ccc(C(=O)N[C@@H](CCOCCCC(=O)NCCS(=O)(=O)CCNc2cccc3c2C(=O)N(C2CCC(=O)NC2=O)C3=O)C(=O)Nc2nc(-c3ccccc3)cs2)c1` (stereo partly drawn) [Compound 253, (2S)-4-(3-[[2-(2-[[2-(2,6-dioxopiperidin-3-yl)-1,3-dioxoisoindol-4-yl]amino]ethanesulfonyl)ethyl]carbamoyl]propoxy)-2-[(1-methanesulfonylpyrrol-3-yl)formamido]-N-(4-phenyl-1,3-thiazol-2-yl)butanamide], in test [1], the DC50 is over 10 µM and the Dmax was under 50%. For the same compound, in test [2], the DC50 was over 10 µM and the “BRM HiBit Degradation Maximum measured” value is given as “C (‘C’ = Maximum degradation <50%)”.

Consider `CS(=O)(=O)n1ccc(C(=O)N[C@@H](CCOCCCC(=O)N2CCN(CCCCCOc3ccc4c(c3)C(=O)N(C3CCC(=O)NC3=O)C4=O)CC2)C(=O)Nc2nc(-c3ccccc3)cs2)c1` (stereo partly drawn) [Compound 254, (2S)-4-[4-[4-(5-[[2-(2,6-dioxopiperidin-3-yl)-1,3-dioxoisoindol-5-yl]oxy]pentyl)piperazin-1-yl]-4-oxobutoxy]-2-[(1-methanesulfonylpyrrol-3-yl)formamido]-N-(4-phenyl-1,3-thiazol-2-yl)butanamide], for which, in test [1], the DC50 was over 10 µM and the Dmax is under 50%. In test [2], the DC50 is over 10 µM and the “BRM HiBit Degradation Maximum measured” value is “C (‘C’ = Maximum degradation <50%)”.
